In patent US10526320B2, “Pyrrolidine derivatives as PPAR agonists” (GUANGDONG RAYNOVENT BIOTECH CO., LTD., priority 2016, dated 2020):
Read-outs that look alike come from different tables or passages of the source.

Experiments:
Type in all cases: cell-based
PPAR Alpha = target: T1, PPAR Alpha (Homo sapiens, UniProt Q07869); test: PathHunter NHR protein interaction / nuclear translocation agonist test, PPAR Alpha; conditions: for Emax: read-out: PPAR Alpha Maximum Activation Response %
T1 sequence (Q07869 1-468): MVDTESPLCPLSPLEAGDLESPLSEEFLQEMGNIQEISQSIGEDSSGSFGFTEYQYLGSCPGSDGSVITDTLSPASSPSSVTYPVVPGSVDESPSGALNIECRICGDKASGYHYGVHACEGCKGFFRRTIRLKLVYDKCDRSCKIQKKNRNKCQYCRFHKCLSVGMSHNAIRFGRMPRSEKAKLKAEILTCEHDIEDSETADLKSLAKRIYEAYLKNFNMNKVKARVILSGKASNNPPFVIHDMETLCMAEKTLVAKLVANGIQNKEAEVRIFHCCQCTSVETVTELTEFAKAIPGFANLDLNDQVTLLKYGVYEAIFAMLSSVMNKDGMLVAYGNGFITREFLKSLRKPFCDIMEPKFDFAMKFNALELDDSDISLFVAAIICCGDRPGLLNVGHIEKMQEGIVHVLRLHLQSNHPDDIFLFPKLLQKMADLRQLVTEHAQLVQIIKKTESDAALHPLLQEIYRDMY

PPAR Gamma = target: T2, PPAR Gamma (Homo sapiens, UniProt P37231); test: PathHunter NHR protein interaction / nuclear translocation agonist test, PPAR Gamma; conditions: for Emax: read-out: PPAR Gamma Maximum Activation Response %
T2 sequence (P37231 1-505): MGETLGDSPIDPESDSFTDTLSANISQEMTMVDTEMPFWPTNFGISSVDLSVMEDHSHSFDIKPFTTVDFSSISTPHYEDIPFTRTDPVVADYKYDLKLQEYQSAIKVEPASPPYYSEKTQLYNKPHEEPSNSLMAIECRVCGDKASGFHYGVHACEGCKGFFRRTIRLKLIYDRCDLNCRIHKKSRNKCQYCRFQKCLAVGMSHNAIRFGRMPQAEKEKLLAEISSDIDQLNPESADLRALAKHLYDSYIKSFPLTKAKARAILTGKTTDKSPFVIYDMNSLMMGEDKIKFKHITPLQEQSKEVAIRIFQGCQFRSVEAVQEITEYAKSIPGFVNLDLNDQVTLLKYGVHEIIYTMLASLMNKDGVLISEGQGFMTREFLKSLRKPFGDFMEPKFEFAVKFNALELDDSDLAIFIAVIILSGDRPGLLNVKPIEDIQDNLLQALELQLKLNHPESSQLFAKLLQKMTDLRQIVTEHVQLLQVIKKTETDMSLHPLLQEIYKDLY

PPAR Delta = target: T3, PPAR Delta (Homo sapiens, UniProt Q03181); test: PathHunter NHR protein interaction / nuclear translocation agonist test, PPAR Delta; conditions: for Emax: read-out: PPAR Delta Maximum Activation Response %
T3 sequence (Q03181 1-441): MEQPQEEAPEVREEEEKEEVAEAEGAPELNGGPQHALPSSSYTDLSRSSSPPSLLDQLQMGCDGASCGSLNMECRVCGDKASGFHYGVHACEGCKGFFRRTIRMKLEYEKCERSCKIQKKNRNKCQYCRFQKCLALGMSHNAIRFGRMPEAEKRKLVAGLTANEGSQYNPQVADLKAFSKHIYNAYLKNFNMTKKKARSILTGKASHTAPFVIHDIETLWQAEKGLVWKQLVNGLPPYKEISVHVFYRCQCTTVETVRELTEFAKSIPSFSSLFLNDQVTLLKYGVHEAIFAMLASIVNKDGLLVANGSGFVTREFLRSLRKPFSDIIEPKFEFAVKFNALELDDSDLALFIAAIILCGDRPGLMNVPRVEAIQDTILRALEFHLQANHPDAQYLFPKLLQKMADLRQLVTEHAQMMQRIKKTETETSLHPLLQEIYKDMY

[1] = agonist mode, read-out: PPAR Alpha EC50
[2] = agonist mode, read-out: PPAR Gamma EC50
[3] = relative to known PPARγ agonist Troglitazone = 100%
[4] = agonist mode, read-out: PPAR Delta EC50
[5] = relative to known PPARδ agonist L-165,041 = 100%

| SMILES | EC50 (PPAR Alpha; [1]) | Emax (PPAR Alpha) | EC50 (PPAR Gamma; [2]) | Emax (PPAR Gamma; [3]) | EC50 (PPAR Delta; [4]) | Emax (PPAR Delta; [5]) | Emax (PPAR Gamma) | Emax (PPAR Delta) | PPAR Delta Maximum Activation Response % (PPAR Delta) | PPAR Alpha Maximum Activation Response % (PPAR Alpha) | EC50 (PPAR Alpha; PPAR Alpha EC50 nM) | EC50 (PPAR Gamma; PPAR Gamma EC50 nM) | EC50 (PPAR Delta; PPAR Delta EC50 nM) |
| --- | --- | --- | --- | --- | --- | --- | --- | --- | --- | --- | --- | --- | --- |
| CSc1ccc(C(=O)C2CN(C(=O)Oc3ccccc3)CC2Cc2ccc(OC(C)(C)C(=O)O)cc2)cc1 (single isomer, unassigned) [Compound 76] | 100 to 150 nM | 80 to 100% | > 250 nM | 80 to 100% | 100 to 150 nM | 80 to 100% |  |  |  |  |  |  |  |
| Cc1cc(CC2CN(C(=O)Oc3ccccc3)CC2C(=O)c2ccc(F)cc2)cc(C)c1OC(C)(C)C(=O)O (single isomer, unassigned) [Compound 69] | < 100 nM | 80 to 100% | 150 to 200 nM | 80 to 100% | < 100 nM | 80 to 100% |  |  |  |  |  |  |  |
| CSc1ccc(C(=O)[C@H]2CN(C(=O)OC3CCC(C)CC3)C[C@@H]2Cc2cc(C)c(OC(C)(C)C(=O)O)c(C)c2)cc1 (mixture of isomers) [Compound 54] | < 100 nM | 80 to 100% | 200 to 250 nM | 80 to 100% | 100 to 150 nM | 80 to 100% |  |  |  |  |  |  |  |
| CSc1ccc(C(=O)/C=C/c2cc(C)c(OC(C)(C)C(=O)O)c(C)c2)cc1 [GFT-505, Elafibranor, reference compound] | > 250 nM | 80 to 100% | > 250 nM |  |  |  | 50 to 80% | 50 to 80% |  |  |  |  |  |
| Cc1cc(CCC2CN(C(=O)Oc3ccccc3)CC2C(=O)c2ccc(Cl)cc2)cc(C)c1OC(C)(C)C(=O)O (single isomer, unassigned) [Compound 66] | < 100 nM |  | 150 to 200 nM |  | < 100 nM |  |  |  | I (key: 100% ≥ I ≥ 80%; 80% ≥ II ≥ 50%; III < 50%) |  |  |  |  |
| COC(=O)N1C[C@@H](C(=O)c2ccc(SC)cc2)[C@H](c2cc(C)c(OC(C)(C)C(=O)O)c(C)c2)C1 (single isomer, unassigned) [Compound 5] | > 250 nM |  | > 250 nM |  | 100 to 150 nM |  | < 50% | 50 to 80% |  | I (key: 100% ≥ I ≥ 80%; 80% ≥ II ≥ 50%; III < 50%) |  |  |  |
| CSc1ccc(C(=O)C2CN(C(=O)Oc3ccccc3)CC2Cc2cc(C)c(OC(C)(C)C(=O)O)c(C)c2)cc1 (stereo not shown) [Compound 26] |  |  |  |  | < 100 nM |  |  | 50 to 80% |  |  | < 100 nM | > 250 nM |  |
| CSc1ccc(C(=O)C2CN(C(=O)OC(C)C)CC2CCc2cc(C)c(OC(C)(C)C(=O)O)c(C)c2)cc1 (single isomer, unassigned) [Compound 58] | 100 to 150 nM | 80 to 100% | 200 to 250 nM |  | < 100 nM |  | 50 to 80% | 50 to 80% |  |  |  |  |  |
| CSc1ccc(C(=O)C2CN(C(=O)Oc3ccccc3)CC2CCc2ccc(OC(C)(C)C(=O)O)c(C)c2)cc1 (single isomer, unassigned) [Compound 81] | < 100 nM | 80 to 100% | 200 to 250 nM | 80 to 100% | 100 to 150 nM | 80 to 100% |  |  |  |  |  |  |  |
| CSc1ccc(C(=O)[C@H]2CN(C)C[C@@H]2CCc2cc(C)c(OC(C)(C)C(=O)O)c(C)c2)cc1 (racemic) [Compound 55] |  | < 50% |  |  |  |  | < 50% | 50 to 80% |  |  | > 250 nM | > 250 nM | 200 to 250 nM |
| CSc1ccc(C(=O)C2CN(C(=O)Oc3ccc(Br)cc3)CC2c2cc(C)c(OC(C)(C)C(=O)O)c(C)c2)cc1 (stereo not shown) [Compound 46] | < 100 nM | 80 to 100% | > 250 nM |  | < 100 nM |  | 80 to 100% | 80 to 100% |  |  |  |  |  |
| CSc1ccc(C(=O)C2CN(C(=O)Oc3ccc(Cl)cc3)CC2c2cc(C)c(OC(C)(C)C(=O)O)c(C)c2)cc1 (single isomer, unassigned) [Compound 13] | < 100 nM | 50 to 80% | > 250 nM |  | < 100 nM |  | 80 to 100% | 50 to 80% |  |  |  |  |  |
| CSc1ccc(C(=O)C2CN(C(=O)Oc3ccc(Cl)cc3)CC2c2cccc(OC(C)(C)C(=O)O)c2)cc1 (single isomer, unassigned) [Compound 34] | < 100 nM |  | > 250 nM |  | > 250 nM |  | 80 to 100% |  | III (key: 100% ≥ I ≥ 80%; 80% ≥ II ≥ 50%; III < 50%) | I (key: 100% ≥ I ≥ 80%; 80% ≥ II ≥ 50%; III < 50%) |  |  |  |
| Cc1cc(CC[C@H]2CN(C(=O)Oc3ccccc3)C[C@@H]2C(=O)c2ccc([S+](C)[O-])cc2)cc(C)c1OC(C)(C)C(=O)O (mixture of isomers) [Compound 67] |  | 80 to 100% | > 250 nM | 80 to 100% | > 250 nM |  |  | 80 to 100% |  |  |  |  |  |
| CSc1ccc(C(=O)C2CN(C(=O)Oc3ccccc3)CC2Cc2ccc(OC(C)(C)C(=O)O)c(F)c2)cc1 (single isomer, unassigned) [Compound 78] | 100 to 150 nM | 80 to 100% | > 250 nM | 80 to 100% | 100 to 150 nM | 80 to 100% |  |  |  |  |  |  |  |
| CSc1ccc(C(=O)[C@@H]2CN(C(=O)Oc3ccc(Cl)c(Cl)c3)C[C@H]2c2cc(C)c(OC(C)(C)C(=O)O)c(C)c2)cc1 (single isomer, unassigned) [Compound 43] | < 100 nM | 80 to 100% |  |  | < 100 nM | 80 to 100% |  |  |  |  |  |  |  |
| CSc1ccc(C(=O)C2CN(C(=O)OC(C)C)CC2c2cc(C)c(OC(C)(C)C(=O)O)c(C)c2)cc1 (single isomer, unassigned) [Compound 7] | > 250 nM | 50 to 80% |  |  | > 250 nM |  |  | 50 to 80% |  |  |  |  |  |
| CSc1ccc(C(=O)[C@H]2CN(C(=O)OCCC(C)C)C[C@@H]2CCc2cc(C)c(OC(C)(C)C(=O)O)c(C)c2)cc1 (racemic) [Compound 72] | < 100 nM | 80 to 100% |  |  | 100 to 150 nM | 80 to 100% |  |  |  |  |  |  |  |
| CSc1ccc(C(=O)C2CN(S(N)(=O)=O)CC2c2cc(C)c(OC(C)(C)C(=O)O)c(C)c2)cc1 (single isomer, unassigned) [Compound 19] | 200 to 250 nM | 80 to 100% |  |  | > 250 nM | 50 to 80% |  |  |  |  |  |  |  |
| CSc1ccc(C(=O)[C@H]2CN(C(=O)Oc3cnn(C)c3)C[C@@H]2Cc2cc(C)c(OC(C)(C)C(=O)O)c(C)c2)cc1 (racemic) [Compound 48] | < 100 nM | 50 to 80% |  |  | 100 to 150 nM |  |  | 50 to 80% |  |  |  |  |  |
| CSc1ccc(C(=O)C2CN(C(=O)Oc3ccc(Br)cc3)CC2Cc2cc(C)c(OC(C)(C)C(=O)O)c(C)c2)cc1 (stereo not shown) [Compound 29] | < 100 nM | 80 to 100% |  |  | < 100 nM |  |  | 80 to 100% |  |  |  |  |  |
| CSc1ccc(C(=O)[C@@H]2CN(C(=O)Oc3ccc(C(C)C)cc3)C[C@H]2c2cc(C)c(OC(C)(C)C(=O)O)c(C)c2)cc1 (single isomer, unassigned) [Compound 40] | < 100 nM | 80 to 100% |  |  | 100 to 150 nM | 80 to 100% |  |  |  |  |  |  |  |
| CSc1ccc(C(=O)[C@@H]2CN(S(C)(=O)=O)C[C@H]2CCc2cc(C)c(OC(C)(C)C(=O)O)c(C)c2)cc1 (single isomer, unassigned) [Compound 75] | > 250 nM | 80 to 100% |  |  | 200 to 250 nM | 80 to 100% |  |  |  |  |  |  |  |
| CSc1ccc(C(=O)[C@H]2CN(C(=O)Oc3ccccc3)C[C@@H]2CCc2cc(C)c(OC(C)(C)C(=O)OC(C)C)c(C)c2)cc1 (single isomer, unassigned) [Compound 61] |  | < 50% |  |  |  |  |  | < 50% |  |  | > 250 nM |  | > 250 nM |
| CSc1ccc(C(=O)C2CN(C(C)=O)CC2c2cc(C)c(OC(C)(C)C(=O)O)c(C)c2)cc1 (single isomer, unassigned) [Compound 21] | > 250 nM | 80 to 100% |  |  | > 250 nM |  |  | 50 to 80% |  |  |  |  |  |
